Test results: ChEMBL document CHEMBL5550152, “Design, synthesis and evaluation of novel prostate-specific membrane antigen-targeted aryl [18F]fluorosulfate PET tracers” (Bioorg Med Chem, 2024); call rule not given here

Assays:
[1] = Drug distribution in nude mouse heart xenografted with human 22Rv1 cells at 8.1 MBq,iv measured after 1 hr; assay type: ADME, tissue-based, CWR22R; settings: in vivo
[2] = Drug distribution in nude mouse heart xenografted with human 22Rv1 cells at 8.1 MBq,iv measured after 4 hrs; assay type: ADME, tissue-based, CWR22R; settings: in vivo
[3] = Drug distribution in nude mouse gall bladder xenografted with human 22Rv1 cells at 8.1 MBq,iv measured after 2 hrs; assay type: ADME, tissue-based, CWR22R; settings: in vivo
[4] = Drug distribution in nude mouse liver xenografted with human 22Rv1 cells at 8.1 MBq,iv measured after 2 hrs in presence of 2-PMPA; assay type: ADME, tissue-based, CWR22R; settings: in vivo
[5] = Drug distribution in nude mouse spleen xenografted with human 22Rv1 cells at 8.1 MBq,iv measured after 4 hrs; assay type: ADME, tissue-based, CWR22R; settings: in vivo
[6] = Drug distribution in nude mouse lung xenografted with human 22Rv1 cells at 8.1 MBq,iv measured after 2 hrs; assay type: ADME, tissue-based, CWR22R; settings: in vivo
[7] = Drug uptake in mouse abdomen xenografted with human 22Rv1 cells at 7.4 MBq, iv measured after 2 to 4 hrs by PET imaging analysis; assay type: ADME, organism-based, CWR22R; settings: in vivo, time 2-4 hrs
[8] = Drug distribution in nude mouse tumor xenografted with human 22Rv1 cells at 8.1 MBq,iv measured after 2 hrs; assay type: ADME, tissue-based, Neoplasm, CWR22R; settings: in vivo
[9] = Drug distribution in nude mouse stomach xenografted with human 22Rv1 cells at 8.1 MBq,iv measured after 1 hr; assay type: ADME, tissue-based, CWR22R; settings: in vivo
[10] = Drug distribution in nude mouse heart xenografted with human 22Rv1 cells at 8.1 MBq,iv measured after 2 hrs; assay type: ADME, tissue-based, CWR22R; settings: in vivo
[11] = Drug distribution in nude mouse blood xenografted with human 22Rv1 cells at 8.1 MBq,iv measured after 4 hrs; assay type: ADME, tissue-based, CWR22R; settings: in vivo
[12] = Drug uptake in human 22Rv1 cells at 3.7 10^-2MBq pretreated with 2-PMPA for 30 mins followed by compound addition and measured after 1 hr relative to control; assay type: ADME, cell-based; settings: cwr22r
[13] = Drug uptake in mouse tumor xenografted with human 22Rv1 cells at 7.4 MBq, iv measured after 2 hrs by PET imaging analysis relative to control; assay type: ADME, organism-based, Neoplasm, CWR22R; settings: in vivo
[14] = Drug distribution in nude mouse kidney xenografted with human 22Rv1 cells at 8.1 MBq,iv measured after 2 hrs in presence of 2-PMPA; assay type: ADME, tissue-based, CWR22R; settings: in vivo
[15] = Drug distribution in nude mouse large intestine xenografted with human 22Rv1 cells at 8.1 MBq,iv measured after 1 hr; assay type: ADME, tissue-based, CWR22R; settings: in vivo
[16] = Drug distribution in nude mouse tumor xenografted with human 22Rv1 cells at 8.1 MBq,iv measured after 4 hrs; assay type: ADME, tissue-based, Neoplasm, CWR22R; settings: in vivo
[17] = Drug distribution in nude mouse gall bladder xenografted with human 22Rv1 cells at 8.1 MBq,iv measured after 1 hr; assay type: ADME, tissue-based, CWR22R; settings: in vivo
[18] = Drug distribution in nude mouse bone xenografted with human 22Rv1 cells at 8.1 MBq,iv measured after 1 hr; assay type: ADME, tissue-based, Bone element, CWR22R; settings: in vivo
[19] = Drug distribution in nude mouse kidney xenografted with human 22Rv1 cells at 8.1 MBq,iv measured after 2 hrs; assay type: ADME, tissue-based, CWR22R; settings: in vivo
[20] = Drug distribution in nude mouse small intestine xenografted with human 22Rv1 cells at 8.1 MBq,iv measured after 1 hr; assay type: ADME, tissue-based, CWR22R; settings: in vivo
[21] = Drug distribution in nude mouse bone xenografted with human 22Rv1 cells at 8.1 MBq,iv measured after 2 hrs in presence of 2-PMPA; assay type: ADME, tissue-based, Bone element, CWR22R; settings: in vivo
[22] = Drug distribution in nude mouse stomach xenografted with human 22Rv1 cells at 8.1 MBq,iv measured after 2 hrs; assay type: ADME, tissue-based, CWR22R; settings: in vivo
[23] = Drug distribution in nude mouse liver xenografted with human 22Rv1 cells at 8.1 MBq,iv measured after 4 hrs; assay type: ADME, tissue-based, CWR22R; settings: in vivo
[24] = Drug distribution in nude mouse muscle tissue xenografted with human 22Rv1 cells at 8.1 MBq,iv measured after 1 hr; assay type: ADME, tissue-based, CWR22R; settings: in vivo
[25] = Drug distribution in nude mouse muscle tissue xenografted with human 22Rv1 cells at 8.1 MBq,iv measured after 2 hrs in presence of 2-PMPA; assay type: ADME, tissue-based, CWR22R; settings: in vivo
[26] = Drug distribution in nude mouse stomach xenografted with human 22Rv1 cells at 8.1 MBq,iv measured after 2 hrs in presence of 2-PMPA; assay type: ADME, tissue-based, CWR22R; settings: in vivo
[27] = Drug distribution in nude mouse small intestine xenografted with human 22Rv1 cells at 8.1 MBq,iv measured after 2 hrs; assay type: ADME, tissue-based, CWR22R; settings: in vivo
[28] = Drug distribution in nude mouse blood xenografted with human 22Rv1 cells at 8.1 MBq,iv measured after 1 hr; assay type: ADME, tissue-based, CWR22R; settings: in vivo
[29] = Drug distribution in nude mouse lung xenografted with human 22Rv1 cells at 8.1 MBq,iv measured after 4 hrs; assay type: ADME, tissue-based, CWR22R; settings: in vivo
[30] = Drug distribution in nude mouse gall bladder xenografted with human 22Rv1 cells at 8.1 MBq,iv measured after 2 hrs in presence of 2-PMPA; assay type: ADME, tissue-based, CWR22R; settings: in vivo
[31] = Drug distribution in nude mouse blood xenografted with human 22Rv1 cells at 8.1 MBq,iv measured after 2 hrs in presence of 2-PMPA; assay type: ADME, tissue-based, CWR22R; settings: in vivo
[32] = Drug uptake in human 22Rv1 cells at 3.7 10^-2MBq measured after 1 hr relative to control; assay type: ADME, cell-based; settings: cwr22r

Work on `COc1cc(C(=O)N[C@@H](CCC(=O)O)C(=O)N[C@@H](CCC(=O)O)C(=O)NCc2ccc(C(=O)N[C@@H](Cc3ccc4ccccc4c3)C(=O)NCCCC[C@H](NC(=O)N[C@@H](CCC(=O)O)C(=O)O)C(=O)O)cc2)ccc1OS(=O)(=O)[18F]` yielded a Drug uptake [1] of 1.57 % ID/g, a Drug uptake [2] of 0.31 % ID/g and a Drug uptake [3] of 6.05 % ID/g. The Drug uptake [4] was 2.4 % ID/g, the Drug uptake [5] was 0.97 % ID/g and the Drug uptake [6] was 1.28 % ID/g. The Drug uptake [7] was “Active”, the Drug uptake [8] was 4.54 % ID/g and the Drug uptake [9] was 1.75 % ID/g. It also gave a Drug uptake [10] of 0.97 % ID/g, a Drug uptake [11] of 0.8 % ID/g and a Drug uptake [12] of 0.53%. The Drug uptake [13] was 2.85 % ID/g, the Drug uptake [14] was 4.33 % ID/g and the Drug uptake [15] was 2.21 % ID/g. For the same compound, the Drug uptake [16] was 4.47 % ID/g, the Drug uptake [17] was 3.69 % ID/g and the Drug uptake [18] was 2.11 % ID/g. For the same compound, the Drug uptake [19] was 23.42 % ID/g, the Drug uptake [20] was 2.58 % ID/g and the Drug uptake [21] was 2.49 % ID/g. For the same compound, the Drug uptake [22] was 0.95 % ID/g, the Drug uptake [23] was 0.79 % ID/g and the Drug uptake [24] was 1.32 % ID/g. The Drug uptake [25] was 0.46 % ID/g, the Drug uptake [26] was 0.57 % ID/g and the Drug uptake [27] was 1.91 % ID/g. The Drug uptake [28] was 6.43 % ID/g, the Drug uptake [29] was 0.52 % ID/g and the Drug uptake [30] was 4.39 % ID/g. It also gave a Drug uptake [31] of 3.86 % ID/g and a Drug uptake [32] of 0.72%.
